Settings: Liquid

ClCCCl [1,2-dichloroethane]
mass density [kg/m3]
Settings | 308.15 K | 318.15 K
100 kPa | 1231 | 1216.4
500 kPa | 1231.4 | 1216.7
1000 kPa | 1232 | 1217.4
1500 kPa | 1232.5 | 1218
2000 kPa | 1233 | 1218.5
2500 kPa | 1233.5 | 1219.1
3100 kPa | 1234.2 | 1219.8
3600 kPa | 1234.7 | 1220.3
4100 kPa | 1235.2 | 1220.9
4600 kPa | 1235.7 | 1221.4
5100 kPa | 1236.2 | 1222
5600 kPa | 1236.9 | 1222.6
6100 kPa | 1237.3 | 1223.1
6600 kPa | 1237.9 | 1223.6
7100 kPa | 1238.4 | 1224.1
7600 kPa | 1238.6 | 1224.7
8100 kPa | 1239.3 | 1225.2
8600 kPa | 1239.8 | 1225.8
9200 kPa | 1240.4 | 1226.3
9600 kPa | 1240.9 | 1226.9
10100 kPa | 1241.3 | 1227.5
10600 kPa | 1241.8 | 1227.9
11100 kPa | 1242.3 | 1228.4
11600 kPa | 1242.8 | 1229
12100 kPa | 1243.4 | 1229.5
12500 kPa | – | 1230
12600 kPa | 1243.8 | –
13100 kPa | 1244.2 | 1230.6
13600 kPa | 1244.7 | 1231
14200 kPa | 1245.3 | 1231.6
14700 kPa | 1245.8 | 1232.1
15200 kPa | 1246.4 | 1232.7
15600 kPa | – | 1233.1
15700 kPa | 1246.8 | –
16200 kPa | 1247.2 | –
16300 kPa | – | 1233.8
16700 kPa | 1247.7 | –
16800 kPa | – | 1234.2
17200 kPa | 1248.2 | –
17300 kPa | – | 1234.8
17800 kPa | 1248.7 | 1235.2
18200 kPa | – | 1235.5
18300 kPa | 1249.2 | –
18800 kPa | 1249.6 | –
18900 kPa | – | 1236.2
19200 kPa | 1250.1 | 1236.5
19700 kPa | 1250.6 | 1237.1
20200 kPa | 1251 | 1237.5
